Reference: ChEMBL document CHEMBL1139098, “3H-[1,2,4]-Triazolo[5,1-i]purin-5-amine derivatives as adenosine A2A antagonists” (Bioorg Med Chem Lett, 2007)

Key:
Adenosine receptor A2a = Adenosine receptor A2a (Homo sapiens, UniProt P29274); experiment: Antagonist activity at human adenosine A2A receptor; assay type: functional
Homo sapiens = organism: Homo sapiens; experiment: Selectivity for human adenosine A2A receptor over human adenosine A1 receptor
[1] = AUC in rat catalepsy model at 3.0 mg/kg, po; assay type: ADME, organism-based; design: dose 3 mg/kg, route oral; conditions: in vivo
Rattus norvegicus [2] = experiment: Effect on rat catalepsy model at 3 mg/kg, po after 1 hr; assay type: functional
Rattus norvegicus [3] = experiment: Effect on rat catalepsy model at 3 mg/kg, po after 4 hrs; assay type: functional
Rattus norvegicus [4] = experiment: Effect on rat catalepsy model at 1 mg/kg, po after 1 hr; assay type: functional
Rattus norvegicus [5] = experiment: Effect on rat catalepsy model at 1 mg/kg, po after 4 hrs; assay type: functional

Adenosine receptor A2a, sequence (P29274 whole entry): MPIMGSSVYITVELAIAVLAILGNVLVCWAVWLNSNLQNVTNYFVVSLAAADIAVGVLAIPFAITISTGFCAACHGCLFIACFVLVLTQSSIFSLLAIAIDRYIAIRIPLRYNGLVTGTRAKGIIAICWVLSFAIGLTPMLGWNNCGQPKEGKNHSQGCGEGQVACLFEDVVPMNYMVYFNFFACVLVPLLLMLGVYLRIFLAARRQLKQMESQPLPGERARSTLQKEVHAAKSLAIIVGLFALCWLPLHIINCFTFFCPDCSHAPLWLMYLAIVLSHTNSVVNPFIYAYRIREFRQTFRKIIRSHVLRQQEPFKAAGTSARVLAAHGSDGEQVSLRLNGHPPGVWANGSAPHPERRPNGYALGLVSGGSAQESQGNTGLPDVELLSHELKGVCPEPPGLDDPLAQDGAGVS

Nc1nc2c(ncn2Cc2ccccc2Cl)c2nc(-c3ccco3)nn12
Ki (Adenosine receptor A2a): 1.7 nM | Selectivity ratio (Homo sapiens): 9

COCCOc1ccc(N2CCN(CCn3cnc4c3nc(N)n3nc(-c5ccccc5C(F)(F)F)nc43)CC2)cc1
Ki (Adenosine receptor A2a): 10 nM | Selectivity ratio (Homo sapiens): 181

Nc1nc2c(ncn2CCN2CCOCC2)c2nc(-c3ccco3)nn12
Ki (Adenosine receptor A2a): 6.3 nM | Selectivity ratio (Homo sapiens): 37

Nc1nc2c(ncn2CCN2CCN(c3ncc(F)cn3)CC2)c2nc(-c3ccco3)nn12
Ki (Adenosine receptor A2a): 1.4 nM | Selectivity ratio (Homo sapiens): 378

Nc1nc2c(ncn2CCN2CCN(c3ccc(F)cc3F)CC2)c2nc(-c3ccco3)nn12
Ki (Adenosine receptor A2a): 0.7 nM | Selectivity ratio (Homo sapiens): 88

Nc1nc2c(ncn2CCN2CCN(c3ccc(Cl)cc3F)CC2)c2nc(-c3ccco3)nn12
Ki (Adenosine receptor A2a): 0.3 nM | Selectivity ratio (Homo sapiens): 403

COCCOc1ccc(N2CCN(CCn3cnc4c3nc(N)n3nc(-c5ccco5)nc43)CC2)c(C(F)(F)F)c1
Ki (Adenosine receptor A2a): 0.4 nM | Selectivity ratio (Homo sapiens): 218

CCCn1cnc2c1nc(N)n1nc(-c3ccco3)nc21
Ki (Adenosine receptor A2a): 5.9 nM | Selectivity ratio (Homo sapiens): 50

Nc1nc2c(ncn2CCN2CCN(c3ccccc3)CC2)c2nc(-c3ccco3)nn12
Ki (Adenosine receptor A2a): 1.7 nM | Selectivity ratio (Homo sapiens): 182

Cc1ccc(N2CCN(CCn3cnc4c3nc(N)n3nc(-c5ccco5)nc43)CC2)nc1
Ki (Adenosine receptor A2a): 1 nM | Selectivity ratio (Homo sapiens): 162

COCCOc1ccc(N2CCN(CCn3cnc4c3nc(N)n3nc(-c5cccc(F)c5)nc43)CC2)cc1
Ki (Adenosine receptor A2a): 2 nM | Selectivity ratio (Homo sapiens): 83

Nc1nc2c(ncn2CCN2CCN(c3nccs3)CC2)c2nc(-c3ccco3)nn12
Ki (Adenosine receptor A2a): 1.7 nM | Selectivity ratio (Homo sapiens): 138

COCCOc1ccc(N2CCN(CCn3cnc4c3nc(N)n3nc(-c5ccccc5)nc43)CC2)cc1
Ki (Adenosine receptor A2a): 3.7 nM | Selectivity ratio (Homo sapiens): 91

Nc1nc2c(ncn2Cc2ccccc2C(F)(F)F)c2nc(-c3ccco3)nn12
Ki (Adenosine receptor A2a): 4.6 nM | Selectivity ratio (Homo sapiens): 30

Nc1nc2c(ncn2CCN2CCN(c3cccc(Cl)c3)CC2)c2nc(-c3ccco3)nn12
Ki (Adenosine receptor A2a): 0.4 nM | Selectivity ratio (Homo sapiens): 371

COCCOc1ccc(N2CCN(CCn3cnc4c3nc(N)n3nc(-c5ccccc5F)nc43)CC2)cc1
Ki (Adenosine receptor A2a): 9.3 nM | Selectivity ratio (Homo sapiens): 15

COCCOc1ccc(N2CCN(CCn3cnc4c3nc(N)n3nc(-c5ccccn5)nc43)CC2)cc1
Ki (Adenosine receptor A2a): 12.6 nM | Selectivity ratio (Homo sapiens): 108

COc1ccc(N2CCN(CCn3cnc4c3nc(N)n3nc(-c5ccco5)nc43)CC2)cc1
Ki (Adenosine receptor A2a): 0.1 nM | Selectivity ratio (Homo sapiens): 1700

COCCOc1ccc(C2CCN(CCn3cnc4c3nc(N)n3nc(-c5ccco5)nc43)CC2)cc1
Ki (Adenosine receptor A2a): 0.7 nM | Selectivity ratio (Homo sapiens): 519

Nc1nc2c(ncn2Cc2ccccc2)c2nc(-c3ccco3)nn12
Ki (Adenosine receptor A2a): 1.5 nM | Selectivity ratio (Homo sapiens): 17

COCCOc1ccc(N2CCN(CCn3cnc4c3nc(N)n3nc(-c5cccc[n+]5[O-])nc43)CC2)cc1
Ki (Adenosine receptor A2a): 89.7 nM | Selectivity ratio (Homo sapiens): 17

Nc1nc2c(ncn2Cc2ccccc2Br)c2nc(-c3ccco3)nn12
Ki (Adenosine receptor A2a): 4.6 nM | Selectivity ratio (Homo sapiens): 7

Nc1nc2c(ncn2CCc2ccccc2)c2nc(-c3ccco3)nn12
Ki (Adenosine receptor A2a): 4.1 nM | Selectivity ratio (Homo sapiens): 33

COCCOc1ccc(N2CCN(CCn3cnc4c3nc(N)n3nc(-c5ccco5)nc43)CC2)cc1
Ki (Adenosine receptor A2a): 0.9 nM | Selectivity ratio (Homo sapiens): 669 | AUC [1]: 524 ng·h/mL | Activity (Rattus norvegicus [2]): 80% | Activity (Rattus norvegicus [3]): 50% | Activity (Rattus norvegicus [4]): 55% | Activity (Rattus norvegicus [5]): 50%

Nc1nc2c(ncn2CCN2CCN(c3ccc(Cl)cn3)CC2)c2nc(-c3ccco3)nn12
Ki (Adenosine receptor A2a): 0.9 nM | Selectivity ratio (Homo sapiens): 333

COCCOc1ccc(N2CCN(CCn3cnc4c3nc(N)n3nc(-c5ccccc5C)nc43)CC2)cc1
Ki (Adenosine receptor A2a): 20.5 nM | Selectivity ratio (Homo sapiens): 76

Nc1nc2c(ncn2CCN2CCC(c3ccc(F)cc3)CC2)c2nc(-c3ccco3)nn12
Ki (Adenosine receptor A2a): 0.9 nM | Selectivity ratio (Homo sapiens): 196

COCCOc1ccc(N2CCN(CCn3cnc4c3nc(N)n3nc(-c5ccco5)nc43)CC2)c(F)c1
Ki (Adenosine receptor A2a): 0.8 nM | Selectivity ratio (Homo sapiens): 517
